In ChEMBL document CHEMBL5724806, “Unraveling interindividual differences and functional consequences of gut microbial metabolism of immunosuppressants” (2024):

Assays:
Assay type in all cases: ADME
[1] = (§1) The drug is tested on Blautia hansenii strain: DSM20583 for biotransformation under anaerobic condition. The drug concentrations were measured over 6 timepoints collected between 0 and 12 hours of incubation by liquid-chromatography-coupled mass spectrometry (LC–MS); parameters: dose 5 uM, timepoint 0, 1.5, 3, 6, 9, 12 hours; conditions: 5 µM
[2] = as §1, with “the gut metagenome community of P-02 with ENA study accession number: PRJEB31790” for “Blautia hansenii strain: DSM20583”, “microaerobic” for “anaerobic”, “7” for “6”; parameters: dose 5 uM, timepoint 0, 0.75, 1.5, 3, 6, 9, 12 hours; conditions: 5 µM
[3] = as §1, with “the gut metagenome community of P-04 with ENA study accession number: PRJEB31790” for “Blautia hansenii strain: DSM20583”, “7” for “6”; parameters: dose 5 uM, timepoint 0, 0.75, 1.5, 3, 6, 9, 12 hours; conditions: 5 µM
[4] = The drug is tested on Bacteroides fragilis strain: DSM2151 for biotransformation under anaerobic condition. The drug concentrations were measured over 6 timepoints collected between 0 and 12 hours of incubation by liquid-chromatography-coupled mass spectrometry (LC–MS); parameters: dose 5 uM, timepoint 0, 1.5, 3, 6, 9, 12 hours; conditions: 5 µM
[5] = (§2) The drug is tested on Capnocytophaga ochracea strain: DSM7271 for biotransformation under microaerobic condition. The drug concentrations were measured over 6 timepoints collected between 0 and 12 hours of incubation by liquid-chromatography-coupled mass spectrometry (LC–MS); parameters: dose 5 uM, timepoint 0, 1.5, 3, 6, 9, 12 hours; conditions: 5 µM
[6] = The drug is tested on Eubacterium rectale strain: DSM17629 for biotransformation under anaerobic condition. The drug concentrations were measured over 6 timepoints collected between 0 and 12 hours of incubation by liquid-chromatography-coupled mass spectrometry (LC–MS); parameters: dose 5 uM, timepoint 0, 1.5, 3, 6, 9, 12 hours; conditions: agathobacter rectalis, 5 µM
[7] = The drug is tested on Lactobacillus reuteri strain: DSM20016 for biotransformation under microaerobic condition. The drug concentrations were measured over 6 timepoints collected between 0 and 12 hours of incubation by liquid-chromatography-coupled mass spectrometry (LC–MS); parameters: dose 5 uM, timepoint 0, 1.5, 3, 6, 9, 12 hours; conditions: limosilactobacillus reuteri, 5 µM
[8] = The drug is tested on Gemella haemolysans strain: DSM107751 for biotransformation under microaerobic condition. The drug concentrations were measured over 6 timepoints collected between 0 and 12 hours of incubation by liquid-chromatography-coupled mass spectrometry (LC–MS); parameters: dose 5 uM, timepoint 0, 1.5, 3, 6, 9, 12 hours; conditions: 5 µM
[9] = The drug is tested on Lactobacillus fermentum strain: DSM20052 for biotransformation under microaerobic condition. The drug concentrations were measured over 6 timepoints collected between 0 and 12 hours of incubation by liquid-chromatography-coupled mass spectrometry (LC–MS); parameters: dose 5 uM, timepoint 0, 1.5, 3, 6, 9, 12 hours; conditions: limosilactobacillus fermentum, 5 µM
[10] = as §1, with “the gut metagenome community of A-09 with ENA study accession number: PRJEB31790” for “Blautia hansenii strain: DSM20583”, “7” for “6”; parameters: dose 5 uM, timepoint 0, 0.75, 1.5, 3, 6, 9, 12 hours; conditions: 5 µM
[11] = as §2, with “the gut metagenome community of A-03 with ENA study accession number: PRJEB31790” for “Capnocytophaga ochracea strain: DSM7271”, “7” for “6”; parameters: dose 5 uM, timepoint 0, 0.75, 1.5, 3, 6, 9, 12 hours; conditions: 5 µM
[12] = The drug is tested on Bacteroides caccae strain: DSM19024 for biotransformation under anaerobic condition. The drug concentrations were measured over 6 timepoints collected between 0 and 12 hours of incubation by liquid-chromatography-coupled mass spectrometry (LC–MS); parameters: dose 5 uM, timepoint 0, 1.5, 3, 6, 9, 12 hours; conditions: 5 µM
[13] = The drug is tested on Lactobacillus ruminis strain: ATCC25644 for biotransformation under anaerobic condition. The drug concentrations were measured over 6 timepoints collected between 0 and 12 hours of incubation by liquid-chromatography-coupled mass spectrometry (LC–MS); parameters: dose 5 uM, timepoint 0, 1.5, 3, 6, 9, 12 hours; conditions: ligilactobacillus ruminis, 5 µM
[14] = as §2, with “the gut metagenome community of A-06 with ENA study accession number: PRJEB31790” for “Capnocytophaga ochracea strain: DSM7271”, “7” for “6”; parameters: dose 5 uM, timepoint 0, 0.75, 1.5, 3, 6, 9, 12 hours; conditions: 5 µM
[15] = The drug is tested on Bacteroides uniformis strain: DSM6597 for biotransformation under anaerobic condition. The drug concentrations were measured over 6 timepoints collected between 0 and 12 hours of incubation by liquid-chromatography-coupled mass spectrometry (LC–MS); parameters: dose 5 uM, timepoint 0, 1.5, 3, 6, 9, 12 hours; conditions: 5 µM
[16] = The drug is tested on Actinomyces naeslundi strain: DSM43013 for biotransformation under microaerobic condition. The drug concentrations were measured over 6 timepoints collected between 0 and 12 hours of incubation by liquid-chromatography-coupled mass spectrometry (LC–MS); parameters: dose 5 uM, timepoint 0, 1.5, 3, 6, 9, 12 hours; conditions: actinomyces naeslundii, 5 µM
[17] = as §1, with “the gut metagenome community of A-07 with ENA study accession number: PRJEB31790” for “Blautia hansenii strain: DSM20583”, “7” for “6”; parameters: dose 5 uM, timepoint 0, 0.75, 1.5, 3, 6, 9, 12 hours; conditions: 5 µM
[18] = The drug is tested on Bacteroides ovatus strain: ATCC 8483 for biotransformation under anaerobic condition. The drug concentrations were measured over 6 timepoints collected between 0 and 12 hours of incubation by liquid-chromatography-coupled mass spectrometry (LC–MS); parameters: dose 5 uM, timepoint 0, 1.5, 3, 6, 9, 12 hours; conditions: 5 µM
[19] = The drug is tested on Clostridium scindens strain: DSM5676 for biotransformation under anaerobic condition. The drug concentrations were measured over 6 timepoints collected between 0 and 12 hours of incubation by liquid-chromatography-coupled mass spectrometry (LC–MS); parameters: dose 5 uM, timepoint 0, 1.5, 3, 6, 9, 12 hours; conditions: 5 µM
[20] = The drug is tested on Streptococcus anginosus strain: DSM20563 for biotransformation under microaerobic condition. The drug concentrations were measured over 6 timepoints collected between 0 and 12 hours of incubation by liquid-chromatography-coupled mass spectrometry (LC–MS); parameters: dose 5 uM, timepoint 0, 1.5, 3, 6, 9, 12 hours; conditions: 5 µM
[21] = as §1, with “the gut metagenome community of A-05 with ENA study accession number: PRJEB31790” for “Blautia hansenii strain: DSM20583”, “7” for “6”; parameters: dose 5 uM, timepoint 0, 0.75, 1.5, 3, 6, 9, 12 hours; conditions: 5 µM
[22] = as §2, with “the gut metagenome community of A-01 with ENA study accession number: PRJEB31790” for “Capnocytophaga ochracea strain: DSM7271”, “7” for “6”; parameters: dose 5 uM, timepoint 0, 0.75, 1.5, 3, 6, 9, 12 hours; conditions: 5 µM
[23] = The drug is tested on Enterococcus faecalis strain: ATCC29212 for biotransformation under microaerobic condition. The drug concentrations were measured over 6 timepoints collected between 0 and 12 hours of incubation by liquid-chromatography-coupled mass spectrometry (LC–MS); parameters: dose 5 uM, timepoint 0, 1.5, 3, 6, 9, 12 hours; conditions: 5 µM
[24] = The drug is tested on Collinsella aerofaciens strain: DSM3979 for biotransformation under anaerobic condition. The drug concentrations were measured over 6 timepoints collected between 0 and 12 hours of incubation by liquid-chromatography-coupled mass spectrometry (LC–MS); parameters: dose 5 uM, timepoint 0, 1.5, 3, 6, 9, 12 hours; conditions: 5 µM
[25] = The drug is tested on Lactobacillus fermentum strain: DSM20052 for biotransformation under anaerobic condition. The drug concentrations were measured over 6 timepoints collected between 0 and 12 hours of incubation by liquid-chromatography-coupled mass spectrometry (LC–MS); parameters: dose 5 uM, timepoint 0, 1.5, 3, 6, 9, 12 hours; conditions: limosilactobacillus fermentum, 5 µM
[26] = as §2, with “the gut metagenome community of A-05 with ENA study accession number: PRJEB31790” for “Capnocytophaga ochracea strain: DSM7271”, “7” for “6”; parameters: dose 5 uM, timepoint 0, 0.75, 1.5, 3, 6, 9, 12 hours; conditions: 5 µM
[27] = The drug is tested on Alloscardovia omnicolens strain: DSM21503 for biotransformation under microaerobic condition. The drug concentrations were measured over 6 timepoints collected between 0 and 12 hours of incubation by liquid-chromatography-coupled mass spectrometry (LC–MS); parameters: dose 5 uM, timepoint 0, 1.5, 3, 6, 9, 12 hours; conditions: 5 µM
[28] = as §1, with “the gut metagenome community of A-08 with ENA study accession number: PRJEB31790” for “Blautia hansenii strain: DSM20583”, “7” for “6”; parameters: dose 5 uM, timepoint 0, 0.75, 1.5, 3, 6, 9, 12 hours; conditions: 5 µM
[29] = The drug is tested on Streptococcus sanguinis strain: DSM20567 for biotransformation under microaerobic condition. The drug concentrations were measured over 6 timepoints collected between 0 and 12 hours of incubation by liquid-chromatography-coupled mass spectrometry (LC–MS); parameters: dose 5 uM, timepoint 0, 1.5, 3, 6, 9, 12 hours; conditions: 5 µM
[30] = as §1, with “the gut metagenome community of A-01 with ENA study accession number: PRJEB31790” for “Blautia hansenii strain: DSM20583”, “7” for “6”; parameters: dose 5 uM, timepoint 0, 0.75, 1.5, 3, 6, 9, 12 hours; conditions: 5 µM

Compound	Bacterial Biotransformation [1]	Bacterial Biotransformation [2]	Bacterial Biotransformation [3]	Bacterial Biotransformation [4]	Bacterial Biotransformation [5]	Bacterial Biotransformation [6]	Bacterial Biotransformation [7]	Bacterial Biotransformation [8]	Bacterial Biotransformation [9]	Bacterial Biotransformation [10]	Bacterial Biotransformation [11]	Bacterial Biotransformation [12]	Bacterial Biotransformation [13]	Bacterial Biotransformation [14]	Bacterial Biotransformation [15]	Bacterial Biotransformation [16]	Bacterial Biotransformation [17]	Bacterial Biotransformation [18]	Bacterial Biotransformation [19]	Bacterial Biotransformation [20]	also measured
C[C@]12C=CC(=O)C=C1CC[C@@H]1[C@@H]2C(=O)C[C@@]2(C)[C@H]1CC[C@]2(O)C(=O)CO [PREDNISONE]	Compound NOT metabolized	Compound metabolized	Compound metabolized	Compound NOT metabolized	Compound NOT metabolized	Compound NOT metabolized	Compound NOT metabolized	Compound NOT metabolized	Compound NOT metabolized	Compound metabolized	Compound metabolized	Compound NOT metabolized	Compound NOT metabolized	Compound metabolized	Compound NOT metabolized	Compound NOT metabolized	Compound metabolized	Compound NOT metabolized	Compound metabolized	Compound NOT metabolized	Bacterial Biotransformation [21]: Compound metabolized; Bacterial Biotransformation [22]: Compound metabolized; Bacterial Biotransformation [23]: Compound NOT metabolized; Bacterial Biotransformation [24]: Compound NOT metabolized; Bacterial Biotransformation [25]: Compound NOT metabolized; Bacterial Biotransformation [26]: Compound metabolized; Bacterial Biotransformation [27]: Compound NOT metabolized; Bacterial Biotransformation [28]: Compound metabolized; Bacterial Biotransformation [29]: Compound NOT metabolized; Bacterial Biotransformation [30]: Compound metabolized
CNC(=C[N+](=O)[O-])NCCSCc1ccc(CN(C)C)o1 [RANITIDINE]	Compound NOT metabolized	Compound NOT metabolized	Compound NOT metabolized	Compound NOT metabolized	Compound NOT metabolized	Compound NOT metabolized	Compound NOT metabolized	Compound NOT metabolized	Compound NOT metabolized	Compound metabolized	Compound NOT metabolized	Compound NOT metabolized	Compound NOT metabolized	Compound metabolized	Compound NOT metabolized	Compound NOT metabolized	Compound NOT metabolized	Compound metabolized	Compound NOT metabolized	Compound NOT metabolized	Bacterial Biotransformation [21]: Compound NOT metabolized; Bacterial Biotransformation [22]: Compound NOT metabolized; Bacterial Biotransformation [23]: Compound metabolized; Bacterial Biotransformation [24]: Compound NOT metabolized; Bacterial Biotransformation [25]: Compound NOT metabolized; Bacterial Biotransformation [26]: Compound NOT metabolized; Bacterial Biotransformation [27]: Compound NOT metabolized; Bacterial Biotransformation [28]: Compound NOT metabolized; Bacterial Biotransformation [29]: Compound NOT metabolized; Bacterial Biotransformation [30]: Compound NOT metabolized
CCC(C)(C)C(=O)O[C@H]1C[C@@H](C)C=C2C=C[C@H](C)[C@H](CC[C@@H]3C[C@@H](O)CC(=O)O3)[C@H]21 [SIMVASTATIN]	Compound NOT metabolized	Compound NOT metabolized	Compound NOT metabolized	Compound NOT metabolized	Compound NOT metabolized	Compound NOT metabolized	Compound NOT metabolized	Compound NOT metabolized	Compound NOT metabolized	Compound NOT metabolized	Compound NOT metabolized	Compound NOT metabolized	Compound NOT metabolized	Compound NOT metabolized	Compound NOT metabolized	Compound NOT metabolized	Compound NOT metabolized	Compound NOT metabolized	Compound metabolized	Compound NOT metabolized	Bacterial Biotransformation [21]: Compound NOT metabolized; Bacterial Biotransformation [22]: Compound NOT metabolized; Bacterial Biotransformation [23]: Compound metabolized; Bacterial Biotransformation [24]: Compound NOT metabolized; Bacterial Biotransformation [25]: Compound NOT metabolized; Bacterial Biotransformation [26]: Compound NOT metabolized; Bacterial Biotransformation [27]: Compound NOT metabolized; Bacterial Biotransformation [28]: Compound NOT metabolized; Bacterial Biotransformation [29]: Compound NOT metabolized; Bacterial Biotransformation [30]: Compound NOT metabolized
